Consider 1 compound from PMC8175350, “Drug repurposing screens identify chemical entities for the development of COVID-19 interventions” (Nature Communications, 2021).

A short description of series [1]: Uninfected HeLa-ACE2 24 h live/dead cytotoxicity counter screen. The settings on record: human, uninfected HeLa-ACE2 cells, unrounded geometric mean; read-out: HeLa-ACE2 uninfected cytotoxicity CC50 GeoMean. The class given is cell-based, human. On the technique in general: A counterscreen serves to expose hits that act by an unwanted route or on another target.
A short description of series [2]: Uninfected Calu-3 48 h Cell-Titer Glo cytotoxicity counter screen. The settings on record: human, uninfected Calu-3 cells, Calu-3 uninfected cytotoxicity CC50 GeoMean, unrounded geometric mean.
Series [3] concerns Calu-3 cells. The description is as above. The settings on record: curve-fit effect at infinite concentration, average.
The test system of series [4] is SARS-CoV-2. The class given is cell-based.
Series [5] concerns SARS-CoV-2. Briefly: microbe, parasite or virus in culture. The class given is cell-based.
In series [6] the test system is SARS-CoV-2. The series can be described thus: microbe, parasite or virus in culture. The class given is cell-based. The settings on record: Severe acute respiratory syndrome coronavirus 2, HeLa-ACE2; unrounded geometric mean; read-out: HeLa-ACE2 CoV-2 EC50 GeoMean.
The test system of series [7] is Calu-3 cells. Briefly: cells. The settings on record: Homo sapiens.
A further series has as its system HeLa-ACE2 cells. Briefly: cells. The settings on record: Homo sapiens, HeLa-ACE2, read-out: HeLa-ACE2 cell count EC50 GeoMean, unrounded geometric mean.

Structures are written as SMILES. Structures can show the parent of a compound that is named as a salt. Where two headings read alike, the source gives them in different places. Bounds are passed on as bounds.

Usually CC50 stands for the concentration that lowers cell viability or growth by half. By EC50 is commonly meant the concentration at which the effect is half-maximal. Turning to `N=C(N)c1ccc2cc(OC(=O)c3ccc(N=C(N)N)cc3)ccc2c1` [Nafamostat mesylate], the CC50 at 24 h in series [1] was more than 39800 nM. This compound had a CC50 at 48 h in series [2] of more than 29800 nM. In the series with Calu-3 cells [3], the “Calu-3 uninfected cytotoxicity Sinf Average” value is -100%. In the series with SARS-CoV-2 [4], the “effect on viral replication in ALI-HBECs” value is “inhibited viral replication”. Besides, the Emax with SARS-CoV-2 [5] (Severe acute respiratory syndrome coronavirus 2, Calu-3, 48 h, curve-fit effect at infinite concentration, average, read-out: Calu-3 CoV-2 Sinf Average) turned out to be 93%; with Calu-3 cells [7] (Calu-3, 48 h, read-out: Calu-3 cell count Sinf Average), 100%. The EC50 with SARS-CoV-2 [5] (Severe acute respiratory syndrome coronavirus 2, Calu-3, unrounded geometric mean, read-out: Calu-3 CoV-2 EC50 GeoMean) is 24 nM; with SARS-CoV-2 [5] (Severe acute respiratory syndrome coronavirus 2, Calu-3, geomean, read-out: SARS-CoV-2 EC50) it was 24 nM; with SARS-CoV-2 [6] it was more than 9590 nM; in the series on Calu-3 cells [7] (Calu-3, read-out: Calu-3 cell count EC50 GeoMean, unrounded geometric mean), 40 nM; in the series with Calu-3 cells [7] (Calu-3, read-out: cell count EC50, Calu-3, geomean, ^↑ = increasing dose-response curve) it was 40 nM; in the series on HeLa-ACE2 cells, more than 9590 nM.
